Like-named read-outs stand apart in the source and are kept apart here.
How the values were obtained:
[1] = tested on: Peripheral blood mononuclear cells co-cultured with venular endothelial cells (HUVEC) (LPS system); assay: BioMAP LPS system; type: cell-based, human; conditions: procedure of Example 827; for inhibition at 1 µM / activation at 10 µM / inhibition at 10 µM: Homo sapiens, HUVEC, 24 h; for activation at 10 µM: read-out: % increase in sTNFα
[2] = tested on: Venular Endothelial cells (HUVEC) (4H system); assay: BioMAP 4H system (IL-4 and histamine); type: cell-based, human; conditions: procedure of Example 826; for inhibition at 1 µM: Homo sapiens, HUVEC, 24 h, read-out: % decrease in VEGFRII
[3] = tested on: Coronary artery smooth muscle cells (CASM3C system); assay: BioMAP CASM3C system (IL-1β, TNFα, IFNγ); type: cell-based, human; conditions: for inhibition at 10 µM: Homo sapiens, 24 h, read-out: % decrease in Thrombomodulin
[4] = tested on: Peripheral blood mononuclear cells co-cultured with B-cells (BT system)
[5] = tested on: Venular Endothelial cells (HUVEC) (3C system); assay: BioMAP 3C system (IL-1β, TNFα, IFNγ); type: cell-based, human; conditions: 10 uM; procedure of Example 825
Description: The BioMAP platform (BioMAP® Diversity PLUS® Panel from Eurofins) is an in vitro phenotypic profiling technology that screened the compounds of the present disclosure (hereafter indicated as test agents) in human primary cell-based systems modelling complex tissue and disease states. The BioMAP assays were performed using the Eurofin's BioMAP Technology Platform as (see references 1 to 13 in the example 824 section) to model different diseases on primary cell-based model systems. These systems consisted of either single primary cell types or co-culture cells. Adherent cell types were cultured or co-cultured in 96 or 384-well plates until confluence followed by the addition of compounds prepared in DMSO at a final concentration of ≤0.1%. In each cell-based system, primary cells from heathy donors (2-6 donors) were pooled and treated with compounds at 1 and 10 μM dose 1h prior to stimulation and remain in culture as indicated in Example 825, Example 826, Example 827, Example 828, Example 829, Example 830, Example 831, Example 832, Example 833, Example 834, Example 835, Example 836 and Example 837. For on the BioMAP® Diversity PLUS® Panel, please see the following references, which are incorporate herein.
Following the general procedure as described in Example 824, Venular Endothelial cells (HUVEC) (3C system) were treated with IL-1β, TNFα, IFNγ for 24h to model Th1 driven cardiovascular and chronic inflammation diseases in the presence or absence of the compounds. Biomarker read out were; Tissue Factor, ICAM-1, E-selectin, uPAR (CD87), IL-8, MIG, HLA-DR, proliferation and SRB (Sulfo-rhodamine i.e. staining for protein content).

HepG2 cells = assay: Glucose uptake (Glucose Uptake-Glo); type: cell-based; conditions: Homo sapiens, 10 uM, read-out: % increase in Glucose Uptake
[6] = tested on: Dermal fibroblasts (HDF3CGF system); assay: BioMAP HDF3CGF system (IL-1β, TNFα, IFNγ, EGF, bFGF, PDGF-BB); type: cell-based, human
[7] = tested on: Bronchial epithelial cells (BE3C system); assay: BioMAP BE3C system (IL-1β, TNFα, IFNγ); type: cell-based, human; conditions: 10 uM, procedure of Example 831; for inhibition at 10 µM: Homo sapiens, Epithelial cell, 24 h, read-out: % decrease in MMP-1
[8] = tested on: Propionic Acidemia (PA) primary fibroblasts GM00371; assay: Mitochondrial respiration, XFe96 Extracellular Flux Analyzer (OCR/ECAR), PA fibroblasts GM00371; type: cell-based; conditions: Homo sapiens, Fibroblast, read-out: Increase in Maximal Respiratory Capacity AUC; for activation at 50 µM: assay condition C (10 mM glucose, 10% FBS)
[9] = tested on: Peripheral blood mononuclear cells co-cultured with B-cells (BT system); assay: cells; conditions: Homo sapiens, 72 h
[10] = tested on: Bronchial epithelial cells co-cultured with dermal fibroblast (BF4T system); assay: BioMAP BF4T system (TNFα and IL-4); type: cell-based, human; conditions: procedure of Example 830
[11] = tested on: primary culture of rat embryo mesencephalic cells (microglia, astrocytes and neurons) exposed to LPS; assay: Neuroprotective effect on damage induced by LPS on culture of mesencephalic neurons (NO, TNF-α, IL-1β, TH positive neurons); type: cell-based; conditions: 50 uM, after 5 days of LPS exposure; for inhibition at 50 µM: Rattus norvegicus, Neuron, 120 h, read-out: % reversion of TH positive neurons
Description: Drug preparation. […] The stock solutions will be prepared 1000× the concentration in 100% DMSO. The final concentration of the vehicle (DMSO) is set at 0.1%.
Test animals. Pregnant Wistar rats (Janvier; France) are used for the study. They are group-housed and maintained in a room with controlled temperature (21-22° C.) and a reversed light-dark cycle (12h/12h; lights on: 17:30-05:30; lights off: 05:30-17:30) with food and water available ad libitum.
The protocol is performed in 3 independent cultures. For each culture, each condition is performed in sextuplicate.
Female rat of 15 days gestation is killed by cervical dislocation. Fetuses are removed from the uterus and their brains are harvested and placed in ice-cold medium (Leibovitz's L15 medium, Gibco). Only ventral mesencephalic flexure is used for the cell preparations. The midbrain is dissociated by trypsinization. The reaction is stopped, and the suspension is triturated and centrifuged. The pellet of dissociated cells is resuspended in culture medium consisted of DMEM-F12 (Gibco), containing 10% FBS (ATCC), 10% Horse serum (Gibco) and 2 mM L-glutamine (Gibco). Viable cells are counted and seeded on 96-well plates, precoated with poly-L-lysine. Cells are maintained in a humidified incubator at 37° C. in 5% CO2-95% air atmosphere. Half of the medium is changed on day 2 and day 5.
Treatment. On day 7, culture media are removed and replaced by new medium consisting of DMEM-F12 (Gibco) supplemented with 2% FBS (ATCC), 2% Horse serum (Gibco) and 2 mM L-glutamine (Gibco) and containing vehicle or test substances. After 1-hour exposure, LPS at 10 ng/ml is added and exposure further continued for 24 hours or 5 days period.
Inflammatory response measurement and neuronal death evaluation. NO production is measured in the media 24h and 5 days after LPS exposure using the Griess reagent kit (Molecular Probes). The Griess reagent Assay is a colorimetric reaction assay which measures the conversion of a sulfanilic salt into an azo dye product by nitrite. Visible wavelength absorbance data is collected using a 96-well plate reader at 570 nm (Multiskan EX, Thermo Fisher, France). IL-1β and TNF-α release are measured in the media 24h after LPS exposure using the ELISA development kit (PeproTech). The ELISA plate, previously coated with anti-IL-1β or anti-TNF-αantibody at 1 μg/ml, is incubated 1h with PBS containing 1% of BSA (bovine serum albumin). After washing four times with PBS containing 0.05% of Tween-20, the plate is successively incubated 2h with supernatant, 2h with biotinylated antibody at 0.5 μg/ml in PBS containing 0.1% of BSA and 0.05% of Tween-20, 45 min with Avidin-HRP conjugated at 1/2000 and 30 min with color ABTS substrate (Sigma). Visible wavelength absorbance data is collected using a 96-well plate reader at 405 nm with wavelength correction set at 650 nm (Multiskan EX, Thermo Fisher, France).
Immunodetection of tyrosine hydroxylase positive neurons. On day 12 (5 days after LPS exposure), cultures are fixed 30 min at 4° C. with paraformaldehyde in PBS (4%, Sigma). Then, cells are successively permeabilized with 0.1% Triton X100 for 30 min, saturated with PBS containing 3% of BSA (bovine serum albumin) and are incubated 2h with anti-tyrosine hydroxylase antibody (Sigma, 1:10000; clone TH-2) at 1/10 000 in PBS containing 0.5% of BSA. Cells are washed three times with PBS containing 0.5% of BSA, and they are incubated 1h with goat anti mouse antibody coupled with AF488 (Invitrogen A11001) diluted at 1/1000 in PBS containing 0.5% of BSA. Finally, nuclei are stained with DAPI at 1/1000 in PBS containing 0.5% of BSA. After rinsing with PBS, the plate is visualized and examined with Cell Insight HCS (Thermo Scientific) to determine the number of tyrosine hydroxylase positive cells per well.
Statistical Analysis. The drug-induced effect on NO and cytokines is calculated by setting the response of the LPS-stimulated control as 100%. […]

[12] = 10 uM, procedure of Example 829
[13] = 10 uM, procedure of Example 833

CC(=O)OCCCC(=O)SCCNC(=O)CCNC(=O)[C@H](O)C(C)(C)CO [Compound 1305, 4-[(2-[3-[(2R)-2,4-dihydroxy-3,3-dimethylbutanamido]propanamido]ethyl)sulfanyl]-4-oxobutyl acetate]
≥ 20%: activation at 10 µM [1] | inhibition at 10 µM ([3]; 10 uM) | inhibition at 10 µM ([9]; read-out: % decrease in sIL-17)
≥10%: % decrease in MCP-1 ([2]; 10 uM) | % decrease in M-CSF ([3]; 1 uM, procedure of Example 832) | % decrease in Proliferation ([3]; 1 uM, procedure of Example 832) | % decrease in VCAM-1 ([3]; 1 uM, procedure of Example 832) | % decrease in CXCL9 ([3]; 10 uM) | % decrease in Tissue Factor ([3]; 10 uM) | % increase in B-cell Proliferation [4, 12] | % decrease in CXCL11/I-TAC [6, 13]
≥ 10%: inhibition at 1 µM ([1]; 1 uM, read-out: % decrease in IL-8) | inhibition at 1 µM ([1]; 1 uM, read-out: % decrease in TissueFactor) | inhibition at 1 µM [2] | activation at 10 µM (HepG2 cells) | inhibition at 1 µM ([6]; Homo sapiens, Fibroblast, 24 h, 1 uM, read-out: % decrease in Collagen III) | inhibition at 10 µM [7] | activation at 50 µM [8] | activation at 10 µM ([8]; assay condition D (1 mM glucose, 10% FBS), 10 μM)
≥20%: % increase in Proliferation (HUVEC) [5]

COC(=O)CCC(=O)SCCNC(=O)CCNC(=O)[C@H](O)C(C)(C)COC(=O)OCC[N+](C)(C)C [Compound 117, [2-([[(3R)-3-hydroxy-3-[[2-([2-[(4-methoxy-4-oxobutanoyl)sulfanyl]ethyl]carbamoyl)ethyl]carbamoyl]-2,2-dimethylpropoxy]carbonyl]oxy)ethyl]trimethylazanium]
≥ 30%: activation at 10 µM (HepG2 cells)
≥ 20%: activation at 10 µM [1] | inhibition at 1 µM ([9]; read-out: % decrease in sIL-17)
≥ 10%: inhibition at 1 µM ([1]; 1 uM, read-out: % decrease in sPGE2) | inhibition at 1 µM [2] | inhibition at 10 µM ([3]; 10 uM) | activation at 10 µM ([6]; Homo sapiens, Fibroblast, 72 h, 10 uM, read-out: % increase in 72 Hour Proliferation) | inhibition at 10 µM [7] | activation at 50 µM [8] | activation at 10 µM ([9]; read-out: % increase in sIL-6)
≥10%: % increase in IL-1α ([1]; 1 uM) | % increase in Tissue Factor ([1]; 1 uM) | % decrease in CXCL9 ([3]; 10 uM) | % increase in Proliferation (HUVEC) [5] | % decrease in tPA [7] | % decrease in tPA ([10]; 10 uM)

COC(=O)/C=C/C(=O)SCCNC(=O)CCNC(=O)[C@H](O)C(C)(C)COC(C)=O [Compound 145, methyl (2E)-4-[(2-[3-[(2R)-4-(acetyloxy)-2-hydroxy-3,3-dimethylbutanamido]propanamido]ethyl)sulfanyl]-4-oxobut-2-enoate]
≥35%: % decrease in NO release relative to LPS alone [11]
≥10%: % decrease in LDLR ([3]; 1 uM, procedure of Example 832) | % decrease in HLA-DR ([3]; 10 uM) | % decrease in sTNFα [4, 12] | % decrease in IL-8 [5] | % decrease in Collagen I [6, 13] | % increase in tPA ([10]; 10 uM)
≥20%: % decrease in B-cell proliferation ([4]; 1 uM, procedure of Example 829) | % decrease in PBMC cytotoxicity ([4]; human, 72 h, 10 µM)
≥ 10%: inhibition at 10 µM ([1]; read-out: % decrease in IL-1α) | inhibition at 10 µM ([1]; read-out: % decrease in IL-8) | activation at 10 µM [1] | inhibition at 10 µM ([6]; Homo sapiens, Fibroblast, 24 h, 10 uM, read-out: % decrease in Collagen III) | activation at 1 µM ([10]; Homo sapiens, 24 h, 1 uM, read-out: % increase in VCAM-1) | inhibition at 1 µM ([9]; read-out: % decrease in sIL-17)
≥ 30%: activation at 10 µM (HepG2 cells)
≥ 15%: inhibition at 50 µM ([11]; list at threshold 15%)
≥ 50%: inhibition at 50 µM ([11]; list at threshold 50%)

— patent publication US20230107216A1, “PANTETHEINE DERIVATIVES AND USES THEREOF” (Comet Therapeutics, Inc., priority 2018, published 2023)
